What all share (assay): biochemical
Holding throughout (type): binding

The target of assay [1] is T1, panel of 442 kinases (Homo sapiens, UniProt P29317).
T1 construct: purchased Ambit Biosciences (scanMAXX KINOMEscan)
The following applies: EPHA2; for remaining activity at 1 µM: read-out: % of control at 1 µM.

For assay [2], the target named is T2, panel of 442 kinases (Homo sapiens, UniProt Q12852).
T2 construct: purchased Ambit Biosciences (scanMAXX KINOMEscan)
T2 sequence (Q12852 1-859): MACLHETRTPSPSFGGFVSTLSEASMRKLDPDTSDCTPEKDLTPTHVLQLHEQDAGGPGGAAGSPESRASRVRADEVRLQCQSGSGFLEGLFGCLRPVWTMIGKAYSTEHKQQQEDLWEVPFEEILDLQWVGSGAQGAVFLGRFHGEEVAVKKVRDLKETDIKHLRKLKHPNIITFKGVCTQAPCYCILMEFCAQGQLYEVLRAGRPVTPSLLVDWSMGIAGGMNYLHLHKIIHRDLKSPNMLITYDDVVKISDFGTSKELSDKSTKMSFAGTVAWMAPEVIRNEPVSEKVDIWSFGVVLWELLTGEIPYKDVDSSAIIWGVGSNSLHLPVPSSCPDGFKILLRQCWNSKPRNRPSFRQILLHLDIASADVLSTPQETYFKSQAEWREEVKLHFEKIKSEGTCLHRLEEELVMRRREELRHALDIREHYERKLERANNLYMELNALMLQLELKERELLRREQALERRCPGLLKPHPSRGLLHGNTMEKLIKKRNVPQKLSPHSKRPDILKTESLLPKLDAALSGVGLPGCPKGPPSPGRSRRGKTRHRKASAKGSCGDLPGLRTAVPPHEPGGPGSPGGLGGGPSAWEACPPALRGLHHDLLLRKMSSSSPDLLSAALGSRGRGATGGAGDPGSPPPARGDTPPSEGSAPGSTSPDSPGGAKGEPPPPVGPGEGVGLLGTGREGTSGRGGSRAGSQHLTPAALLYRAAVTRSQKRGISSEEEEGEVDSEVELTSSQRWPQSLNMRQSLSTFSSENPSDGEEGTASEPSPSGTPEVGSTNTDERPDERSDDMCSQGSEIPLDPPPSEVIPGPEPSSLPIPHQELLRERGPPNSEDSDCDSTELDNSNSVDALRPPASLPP
The conditions noted are these: DLK; for remaining activity at 1 µM: read-out: % of control at 1 µM.

In assay [3] the target is T3, panel of 442 kinases (Homo sapiens, UniProt Q14164).
T3 construct: purchased Ambit Biosciences (scanMAXX KINOMEscan)
T3 sequence (Q14164 1-716): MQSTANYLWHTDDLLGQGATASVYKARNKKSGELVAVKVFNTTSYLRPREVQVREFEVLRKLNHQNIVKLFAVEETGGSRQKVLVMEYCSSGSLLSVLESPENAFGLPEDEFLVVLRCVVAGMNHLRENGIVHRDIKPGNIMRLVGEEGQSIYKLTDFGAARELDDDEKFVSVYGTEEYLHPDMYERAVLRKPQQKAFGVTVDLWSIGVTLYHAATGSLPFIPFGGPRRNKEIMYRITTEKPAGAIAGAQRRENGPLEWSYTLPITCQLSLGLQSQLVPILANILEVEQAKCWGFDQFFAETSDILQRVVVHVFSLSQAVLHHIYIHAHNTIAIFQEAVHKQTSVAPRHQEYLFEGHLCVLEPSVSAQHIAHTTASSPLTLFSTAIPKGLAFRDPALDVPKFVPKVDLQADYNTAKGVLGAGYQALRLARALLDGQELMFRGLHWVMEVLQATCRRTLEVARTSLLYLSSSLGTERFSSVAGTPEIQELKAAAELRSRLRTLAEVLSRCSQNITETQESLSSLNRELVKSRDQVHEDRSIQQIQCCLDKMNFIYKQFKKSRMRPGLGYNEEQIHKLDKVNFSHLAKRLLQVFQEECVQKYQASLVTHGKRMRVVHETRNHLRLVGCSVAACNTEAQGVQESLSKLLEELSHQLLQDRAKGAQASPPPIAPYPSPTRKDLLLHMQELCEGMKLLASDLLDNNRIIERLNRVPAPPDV
The following applies: kinase IKK-epsilon; for remaining activity at 1 µM: read-out: % of control at 1 µM.

Assay [4] addresses T4, panel of 442 kinases (Homo sapiens, UniProt Q8NG66).
T4 construct: purchased Ambit Biosciences (scanMAXX KINOMEscan)
T4 sequence (Q8NG66 1-645): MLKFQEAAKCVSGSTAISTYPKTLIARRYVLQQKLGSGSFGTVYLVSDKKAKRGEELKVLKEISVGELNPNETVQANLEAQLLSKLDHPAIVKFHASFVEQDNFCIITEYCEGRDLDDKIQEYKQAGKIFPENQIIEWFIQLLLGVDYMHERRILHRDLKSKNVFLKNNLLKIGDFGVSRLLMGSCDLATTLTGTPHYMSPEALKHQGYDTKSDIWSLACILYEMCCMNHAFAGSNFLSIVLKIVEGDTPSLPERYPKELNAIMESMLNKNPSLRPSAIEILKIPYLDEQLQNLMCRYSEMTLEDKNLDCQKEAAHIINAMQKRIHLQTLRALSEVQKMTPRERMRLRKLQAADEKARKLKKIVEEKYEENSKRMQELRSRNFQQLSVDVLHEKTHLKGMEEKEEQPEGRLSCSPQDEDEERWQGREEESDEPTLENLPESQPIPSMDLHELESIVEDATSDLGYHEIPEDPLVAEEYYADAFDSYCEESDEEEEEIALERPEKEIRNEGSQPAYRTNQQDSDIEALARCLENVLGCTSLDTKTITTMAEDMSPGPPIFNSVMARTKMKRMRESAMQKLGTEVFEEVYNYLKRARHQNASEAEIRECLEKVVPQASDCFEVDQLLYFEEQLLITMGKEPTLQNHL
The conditions noted are these: kinase NEK11; for remaining activity at 1 µM: read-out: % of control at 1 µM.

Assay [5] addresses T5, panel of 442 kinases (Homo sapiens, UniProt Q8WU08).
T5 construct: purchased Ambit Biosciences (scanMAXX KINOMEscan)
The conditions noted are these: kinase YANK1; for remaining activity at 1 µM: read-out: YANK1 (% of control at 1 µM).

Where [6] appears, read: 10 µM, read-out: % of control at 10 µM.

Data on four molecules can be found in publication PMC5564600 (Oncotarget, 2017).

T5 sequence (Q8WU08 whole entry): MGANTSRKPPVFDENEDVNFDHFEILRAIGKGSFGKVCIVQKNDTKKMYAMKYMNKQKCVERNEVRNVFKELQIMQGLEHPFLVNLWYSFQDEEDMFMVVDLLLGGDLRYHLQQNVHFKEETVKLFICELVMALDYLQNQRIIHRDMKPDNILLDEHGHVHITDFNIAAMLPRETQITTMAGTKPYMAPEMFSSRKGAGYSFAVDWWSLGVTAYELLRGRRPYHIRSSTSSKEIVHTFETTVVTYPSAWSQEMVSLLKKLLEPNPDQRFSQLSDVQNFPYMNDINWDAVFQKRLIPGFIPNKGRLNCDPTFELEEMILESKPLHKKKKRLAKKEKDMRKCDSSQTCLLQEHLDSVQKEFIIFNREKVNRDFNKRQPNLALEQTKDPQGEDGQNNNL
T1 sequence (P29317 24-976): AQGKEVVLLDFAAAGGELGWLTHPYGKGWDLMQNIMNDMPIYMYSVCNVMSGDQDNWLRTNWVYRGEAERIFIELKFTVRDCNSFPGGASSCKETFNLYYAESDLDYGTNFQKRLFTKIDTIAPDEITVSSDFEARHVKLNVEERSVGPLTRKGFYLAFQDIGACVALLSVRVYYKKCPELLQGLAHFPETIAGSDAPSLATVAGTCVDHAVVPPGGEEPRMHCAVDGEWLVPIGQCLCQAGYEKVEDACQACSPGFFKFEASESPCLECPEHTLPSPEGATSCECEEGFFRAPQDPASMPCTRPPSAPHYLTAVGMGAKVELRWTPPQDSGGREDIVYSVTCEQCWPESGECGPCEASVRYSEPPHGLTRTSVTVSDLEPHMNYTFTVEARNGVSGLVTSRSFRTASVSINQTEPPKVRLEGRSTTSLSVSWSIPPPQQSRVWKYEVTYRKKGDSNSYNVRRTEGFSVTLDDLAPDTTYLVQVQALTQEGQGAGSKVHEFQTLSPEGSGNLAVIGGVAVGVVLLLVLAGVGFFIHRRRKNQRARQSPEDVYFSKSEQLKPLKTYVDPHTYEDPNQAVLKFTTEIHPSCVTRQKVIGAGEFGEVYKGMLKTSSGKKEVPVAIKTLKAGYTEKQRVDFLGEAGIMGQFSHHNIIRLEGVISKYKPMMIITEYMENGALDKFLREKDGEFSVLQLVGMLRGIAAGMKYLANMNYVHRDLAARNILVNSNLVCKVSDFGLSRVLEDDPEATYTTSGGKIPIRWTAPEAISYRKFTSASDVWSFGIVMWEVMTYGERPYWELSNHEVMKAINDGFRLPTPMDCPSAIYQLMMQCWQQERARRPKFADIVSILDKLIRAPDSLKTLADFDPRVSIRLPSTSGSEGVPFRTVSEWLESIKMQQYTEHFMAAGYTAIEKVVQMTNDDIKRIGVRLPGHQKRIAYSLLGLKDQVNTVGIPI

`Nc1cc(C(F)(F)F)c(-c2cc(N3CCOCC3)nc(N3CCOCC3)n2)cn1` [Buparlisib]: the remaining activity at 1 µM at panel of 442 kinases [1] is 100%; on panel of 442 kinases [2], 94%; at panel of 442 kinases [3], 78%; at panel of 442 kinases [4], 74%; at panel of 442 kinases [5] it was 100%. The remaining activity at 10 µM at panel of 442 kinases [1] (setting [6]) was found to be 100%; on panel of 442 kinases [2] (setting [6]), 100%; at panel of 442 kinases [3] (setting [6]) it was 100%; on panel of 442 kinases [4] (setting [6]), 96%; on panel of 442 kinases [5] (10 µM, read-out: YANK1 (% of control at 10 µM)) it was 100%.

As for `Cn1c(=O)n(-c2ccc(C(C)(C)C#N)cc2)c2c3cc(-c4cnc5ccccc5c4)ccc3ncc21` [Dactolisib, 2-methyl-2-[4-(3-methyl-2-oxo-8-quinolin-3-yl-2,3-dihydroimidazo[4,5-c]quinolin-1-yl)-phenyl] propionitrile], the remaining activity at 1 µM was found to be 96% at panel of 442 kinases [1]; 100% at panel of 442 kinases [2]; 100% on panel of 442 kinases [3]; 81% on panel of 442 kinases [4]; 100% on panel of 442 kinases [5].

Take `FC(F)c1nc2ccccc2n1-c1nc(N2CCOCC2)nc(N2CCOCC2)n1` [ZSTK474, 2-(difluoromethyl)-1-[4,6-di(4-morpholinyl)-1,3,5-triazin-2-yl]-1H-benzimidazole]: the remaining activity at 1 µM turned out to be 100% at panel of 442 kinases [1]; 100% on panel of 442 kinases [2]; 100% on panel of 442 kinases [3]; 82% on panel of 442 kinases [4]; 100% at panel of 442 kinases [5].

Take `COc1ncc(-c2ccc3nccc(-c4ccnnc4)c3c2)cc1NS(=O)(=O)c1ccc(F)cc1F` [Omipalisib]: the remaining activity at 1 µM was determined as 100% at panel of 442 kinases [1]; 63% on panel of 442 kinases [2]; 100% on panel of 442 kinases [3]; 100% on panel of 442 kinases [4]; 100% at panel of 442 kinases [5].
